Measured values from US20050101611A1, “Oral formulation comprising an inhibitor compound of the ileal bile transport and an hmg co-a reductase inhibitor” (priority 2000, published 2005).

Target: T1, ileal bile acid transport system (IBAT) (Homo sapiens, UniProt Q12908)
T1 sequence (Q12908 1-348): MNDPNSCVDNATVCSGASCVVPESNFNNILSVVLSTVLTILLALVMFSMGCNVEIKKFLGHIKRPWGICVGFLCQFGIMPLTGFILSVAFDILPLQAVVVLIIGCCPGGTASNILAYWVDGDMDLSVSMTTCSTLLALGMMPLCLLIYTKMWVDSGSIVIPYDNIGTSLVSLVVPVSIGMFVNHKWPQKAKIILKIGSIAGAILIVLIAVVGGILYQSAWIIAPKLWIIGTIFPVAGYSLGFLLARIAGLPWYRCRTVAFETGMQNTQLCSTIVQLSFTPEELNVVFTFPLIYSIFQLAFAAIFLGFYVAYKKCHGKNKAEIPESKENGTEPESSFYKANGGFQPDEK
Test: inhibition of IBAT
Details: statement in background text; no method or data given

inhibition of IBAT: no activity
Compound: COc1ccc([C@@H]2Sc3ccccc3N(CCN(C)C)C(=O)[C@@H]2OC(C)=O)cc1 [diltiazem]
